This passage reports IC50 results from patent publication US20240279207A1, “SUBSTITUTED ACYL SULFONAMIDES FOR TREATING CANCER” (The Broad Institute, Inc., priority 2020, published 2024).

Read-outs that look alike come from different tables or passages of the source.

For assay [1], the system named is ESR1 transcription in MVLN cells. Kind of assay: MVLN reporter assay: repression of ESR1 transcription (luciferase signal). In kind it is cell-based. As to conditions: Homo sapiens, luciferase signal after 24 h, read-out: MVLN reporter assay, IC50 [M] (arithmetic mean). From the text:
KAT6A controls transcription of the ESR1 gene in breast cancer cells. Compound treatment that interferes with this mechanism was quantified using MVLN cells. These cells constitutively express the ER and are stably transfected with the luciferase (LUC) reporter gene and the corresponding hormone responsive element derived from the 5′-flanking region of the Xenopus Vitellogenin A2 gene (Pons et al., 1990, Demirpense et al., 1993, Joyeux et al., 1993). The repressive effect on ERα transcription activity of a test chemical is directly related to the luciferase measured in the lysate of treated MVLN cells. […] Each sample was prepared as duplicate and rim wells were excluded. For luciferase signal determination 100 μl of a 1:1 mixture of Steadylite plus (Perkin Elmer; 6016759) and assay medium was added after 24 h for 15 minutes and measured in Victor X3 (Perkin Elmer). To exclude any effects caused by cell loss during the treatment, cell density was determined using Alamar Blue (Invitrogen; DAL1100). Prior to the luciferase measurement 10 μl Alamar Blue were added to each well and the plates were incubated for 2 h in the incubator. Then fluorescence was measured with Victor X3 (Perkin Elmer) at 530 nm/590 nm.

In assay [2] the target is T1, Recombinant human His-tagged Kat6a protein (amino acids 194-810) (Homo sapiens, UniProt Q92794).
T1 construct: Kat6a protein (amino acids 194-810); His
T1 sequence (Q92794 194-810): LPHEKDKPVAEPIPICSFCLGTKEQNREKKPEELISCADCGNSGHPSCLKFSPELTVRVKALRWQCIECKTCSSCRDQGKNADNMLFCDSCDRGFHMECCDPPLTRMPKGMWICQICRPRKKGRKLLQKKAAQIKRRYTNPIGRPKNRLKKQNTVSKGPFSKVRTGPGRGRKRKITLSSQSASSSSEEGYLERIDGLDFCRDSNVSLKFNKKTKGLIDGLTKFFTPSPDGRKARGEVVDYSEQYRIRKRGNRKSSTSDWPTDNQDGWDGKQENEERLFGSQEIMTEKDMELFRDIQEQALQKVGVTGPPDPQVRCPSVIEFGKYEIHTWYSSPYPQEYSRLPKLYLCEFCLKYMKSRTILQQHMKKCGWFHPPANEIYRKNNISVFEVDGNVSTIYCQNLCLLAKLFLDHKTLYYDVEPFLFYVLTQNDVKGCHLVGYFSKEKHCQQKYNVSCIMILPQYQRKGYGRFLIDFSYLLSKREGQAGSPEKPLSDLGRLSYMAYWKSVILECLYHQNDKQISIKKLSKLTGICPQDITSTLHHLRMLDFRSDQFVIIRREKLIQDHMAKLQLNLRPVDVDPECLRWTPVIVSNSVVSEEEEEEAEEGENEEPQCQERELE
Kind of assay: Kat6a activity assay (TR-FRET, acetylation of Histone-H4-derived peptide). Type of assay: biochemical. The settings on record: 60 mins at 22° C., 220 nM H4 peptide, 600 nM Acetyl Coenzyme A, read-out: KAT6A - DPF/HAT domain IC50 [mol/l] (arithmetic mean). Here is the method:
Kat6a inhibitory activities of the compounds described in the present invention were quantified using a Fluorescence Resonance Energy Transfer (TR-FRET) assay which measures acetylation of a synthetic, biotinylated Histone-H4-derived peptide by the enzyme.
In this case 50 nl DMSO were used instead of compounds. […] IC50 values were determined by regression analysis based on a 4 parameter equation (minimum, maximum, ICM, Hill; Y=Max+(Min−Max)/(1+(X/ICso) Hill) using the Screener Software (Genedata).

For the compound `CCCc1cccc(C(F)(F)F)c1S(=O)(=O)NC(=O)c1cc2c(F)cc(N3CCC3)cc2o1` [Example 58, 6-(Azetidin-1-yl)-4-fluoro-N-[2-propyl-6-(trifluoromethyl)benzene-1-sulfonyl]-1-benzofuran-2-carboxamide], the IC50 in assay [1] (MVLN, 24 h) was 3.87e-06 M; in assay [2], 0.315 µM.

In the case of `COCCOc1ccc(Cl)c(S(=O)(=O)NC(=O)c2cc3c(F)cc(N4CCC4)cc3o2)c1` [Example 59, 6-(Azetidin-1-yl)-N-[2-chloro-5-(2-methoxyethoxy)benzene-1-sulfonyl]-4-fluoro-1-benzofuran-2-carboxamide], the IC50 in assay [1] (MVLN, 24 h) stood at 4.29e-06 M; in assay [2], 0.208 µM.

`Cc1cnc(Cl)c(S(=O)(=O)NC(=O)c2cc3c(F)cc(N4CCC4)cc3o2)c1` [Example 60, 6-(Azetidin-1-yl)-N-(2-chloro-5-methylpyridine-3-sulfonyl)-4-fluoro-1-benzofuran-2-carboxamide]: the IC50 turned out to be 5.29e-06 M in assay [1] (MVLN, 24 h) and 0.476 µM in assay [2].

For `Cc1cccc(C2CCCC2)c1S(=O)(=O)NC(=O)c1cc2c(F)cc(N3CCC3)cc2o1` [Example 61, 6-(Azetidin-1-yl)-N-(2-cyclopentyl-6-methylbenzene-1-sulfonyl)-4-fluoro-1-benzofuran-2-carboxamide], the IC50 amounted to 5.6e-06 M in assay [1] (MVLN, 24 h) and 0.399 µM in assay [2].

With `O=C(NS(=O)(=O)c1cc(CO)ccc1OC(F)(F)F)c1cc2c(F)cc(N3CCC3)cc2o1` [Example 63, 6-(Azetidin-1-yl)-4-fluoro-N-[5-(hydroxymethyl)-2-(trifluoromethoxy)benzene-1-sulfonyl]-1-benzofuran-2-carboxamide], the IC50 in assay [1] (MVLN, 24 h) stood at 6.48e-06 M; in assay [2], 0.131 µM.

As for `Cc1cccc(O)c1S(=O)(=O)NC(=O)c1cc2c(F)cc(N3CCC3)cc2o1` [Example 64, 6-(Azetidin-1-yl)-4-fluoro-N-(2-hydroxy-6-methylbenzene-1-sulfonyl)-1-benzofuran-2-carboxamide], the IC50 was 8e-06 M in assay [1] (MVLN, 24 h) and 0.0851 µM in assay [2].

As for `COc1cccc2c(S(=O)(=O)NC(=O)c3cc4c(F)cc(N5CCC5)cc4o3)cccc12` [Example 65, 6-(Azetidin-1-yl)-4-fluoro-N-(5-methoxynaphthalene-1-sulfonyl)-1-benzofuran-2-carboxamide], the IC50 in assay [1] (MVLN, 24 h) was 8.32e-06 M; in assay [2] it was 0.0571 µM.

As to `CN(C)c1cccc2c(S(=O)(=O)NC(=O)c3cc4c(F)cc(N5CCC5)cc4o3)cccc12` [Example 66, 6-(Azetidin-1-yl)-N-[5-(dimethylamino)naphthalene-1-sulfonyl]-4-fluoro-1-benzofuran-2-carboxamide], the IC50 in assay [1] (MVLN, 24 h) came out at 1e-05 M; in assay [2], 0.135 µM.

On to `COc1cccnc1S(=O)(=O)NC(=O)c1cc2c(F)cc(N3CCC3)cc2o1` [Example 67, 6-(Azetidin-1-yl)-4-fluoro-N-(3-methoxypyridine-2-sulfonyl)-1-benzofuran-2-carboxamide], for which the IC50 in assay [1] (MVLN, 24 h) worked out at 1.1e-05 M; in assay [2], 0.345 µM.

Consider `N#CCCc1ccc(S(=O)(=O)NC(=O)c2cc3c(F)cc(N4CCC4)cc3o2)cc1` [Example 68, 6-(Azetidin-1-yl)-N-[4-(2-cyanoethyl)benzene-1-sulfonyl]-4-fluoro-1-benzofuran-2-carboxamide], for which the IC50 in assay [1] (MVLN, 24 h) stood at 1.26e-05 M; in assay [2], 0.652 µM.

Regarding `O=C(NS(=O)(=O)c1ncccc1Br)c1cc2c(F)cc(N3CCC3)cc2o1` [Example 69, 6-(Azetidin-1-yl)-N-(3-bromopyridine-2-sulfonyl)-4-fluoro-1-benzofuran-2-carboxamide], the IC50 in assay [1] (MVLN, 24 h) came to 1.56e-05 M; in assay [2], 0.325 µM.

Regarding `Cc1cc(Nc2ccccc2S(=O)(=O)NC(=O)c2cc3c(F)cc(N4CCC4)cc3o2)n(-c2ccccc2)n1` [Example 70, 6-(Azetidin-1-yl)-4-fluoro-N-{2-[(3-methyl-1-phenyl-1H-pyrazol-5-yl)amino]benzene-1-sulfonyl}-1-benzofuran-2-carboxamide], the IC50 in assay [1] (MVLN, 24 h) came out at 1.58e-05 M; in assay [2] it was 0.494 µM.

As for `O=C(NS(=O)(=O)c1cc(O)cc2ccccc12)c1cc2c(F)cc(N3CCC3)cc2o1` [Example 71, 6-(Azetidin-1-yl)-4-fluoro-N-(3-hydroxynaphthalene-1-sulfonyl)-1-benzofuran-2-carboxamide], the IC50 in assay [1] (MVLN, 24 h) turned out to be 1.72e-05 M; in assay [2], 0.0843 µM.

As to `CN(C)S(=O)(=O)c1ccc(Cl)c(S(=O)(=O)NC(=O)c2cc3c(F)cc(N4CCC4)cc3o2)c1` [Example 72, 6-(Azetidin-1-yl)-N-[2-chloro-5-(dimethylsulfamoyl)benzene-1-sulfonyl]-4-fluoro-1-benzofuran-2-carboxamide], the IC50 in assay [1] (MVLN, 24 h) was 1.89e-05 M; in assay [2], 0.159 µM.

As to `O=C(NS(=O)(=O)c1ccccc1C(=O)N1CCOCC1)c1cc2c(F)cc(N3CCC3)cc2o1` [Example 73, 6-(Azetidin-1-yl)-4-fluoro-N-[2-(morpholine-4-carbonyl)benzene-1-sulfonyl]-1-benzofuran-2-carboxamide], the IC50 in assay [1] (MVLN, 24 h) stood at 2.56e-06 M; in assay [2], 0.105 µM.

As to `COC(=O)/C=C/c1ccccc1S(=O)(=O)NC(=O)c1cc2c(F)cc(N3CCC3)cc2o1` [Example 74, Methyl (2E)-3-(2-{[6-(azetidin-1-yl)-4-fluoro-1-benzofuran-2-carbonyl]sulfamoyl}phenyl)prop-2-enoate], the IC50 came out at 2.56e-06 M in assay [1] (MVLN, 24 h) and 0.0898 µM in assay [2].

Consider `CCOc1cccc(S(=O)(=O)NC(=O)c2cc3c(F)cc(N4CCC4)cc3o2)c1` [Example 75, 6-(Azetidin-1-yl)-N-(3-ethoxybenzene-1-sulfonyl)-4-fluoro-1-benzofuran-2-carboxamide], for which the IC50 in assay [1] (MVLN, 24 h) was found to be 2.76e-06 M; in assay [2], 0.337 µM.

In the case of `CCN(CC)C(=O)Oc1ccccc1S(=O)(=O)NC(=O)c1cc2c(F)cc(N3CCC3)cc2o1` [Example 76, 2-{[6-(Azetidin-1-yl)-4-fluoro-1-benzofuran-2-carbonyl]sulfamoyl}phenyl diethylcarbamate], the IC50 in assay [1] is 2.82e-06 M; in assay [2] it was 0.111 µM.

`CCS(=O)(=O)c1ccccc1S(=O)(=O)NC(=O)c1cc2c(F)cc(N3CCC3)cc2o1` [Example 77, 6-(Azetidin-1-yl)-N-[2-(ethanesulfonyl)benzene-1-sulfonyl]-4-fluoro-1-benzofuran-2-carboxamide]: the IC50 came out at 3.45e-06 M in assay [1] (MVLN, 24 h) and 0.207 µM in assay [2].

`CCOc1cccc(OCC(F)F)c1S(=O)(=O)NC(=O)c1cc2c(F)cc(N3CCC3)cc2o1` [Example 81, 6-(Azetidin-1-yl)-N-[2-(2,2-difluoroethoxy)-6-ethoxybenzene-1-sulfonyl]-4-fluoro-1-benzofuran-2-carboxamide]: the IC50 in assay [1] (MVLN, 24 h) was 1.57e-07 M; in assay [2], 0.018 µM.

`O=C(NS(=O)(=O)c1cc(Br)ccc1OC(F)(F)F)c1cc2c(F)cc(N3CCC3)cc2o1` [Example 82, 6-(Azetidin-1-yl)-N-[5-bromo-2-(trifluoromethoxy)benzene-1-sulfonyl]-4-fluoro-1-benzofuran-2-carboxamide]: the IC50 came to 3.66e-07 M in assay [1] (MVLN, 24 h) and 0.0193 µM in assay [2].

As for `CCCOc1cccc(OC(C)(C)C)c1S(=O)(=O)NC(=O)c1cc2c(F)cc(N3CCC3)cc2o1` [Example 83, 6-(Azetidin-1-yl)-N-(2-tert-butoxy-6-propoxybenzene-1-sulfonyl)-4-fluoro-1-benzofuran-2-carboxamide], the IC50 in assay [1] (MVLN, 24 h) amounted to 2.85e-07 M; in assay [2], 0.0267 µM.

Regarding `CCc1cccc(OC(C)C)c1S(=O)(=O)NC(=O)c1cc2c(F)cc(N3CCC3)cc2o1` [Example 84, 6-(Azetidin-1-yl)-N-{2-ethyl-6-[(propan-2-yl)oxy]benzene-1-sulfonyl}-4-fluoro-1-benzofuran-2-carboxamide], the IC50 was 5.73e-07 M in assay [1] (MVLN, 24 h) and 0.0427 µM in assay [2].

Turning to `CCc1cccc(OCc2ccccc2)c1S(=O)(=O)NC(=O)c1cc2c(F)cc(N3CCC3)cc2o1` [Example 85, 6-(Azetidin-1-yl)-N-[2-(benzyloxy)-6-ethylbenzene-1-sulfonyl]-4-fluoro-1-benzofuran-2-carboxamide], the IC50 in assay [1] (MVLN, 24 h) is 3.1e-07 M; in assay [2], 0.0457 µM.

With `Cc1cccc(OC(C)C)c1S(=O)(=O)NC(=O)c1cc2c(F)cc(N3CCC3)cc2o1` [Example 86, 6-(Azetidin-1-yl)-4-fluoro-N-{2-methyl-6-[(propan-2-yl)oxy]benzene-1-sulfonyl}-1-benzofuran-2-carboxamide], the IC50 is 3.33e-07 M in assay [1] (MVLN, 24 h) and 0.0548 µM in assay [2].

With `Cc1ccc(S(=O)(=O)NC(=O)c2cc3c(F)cc(N4CCC4)cc3o2)c2ccccc12` [Example 87, 6-(azetidin-1-yl)-4-fluoro-N-(4-methylnaphthalene-1-sulfonyl)-1-benzofuran-2-carboxamide], the IC50 in assay [1] (MVLN, 24 h) is 1.2e-06 M; in assay [2] it was 0.0645 µM.
